Article PMC8949187, “Study of Structure–Activity Relationships of the Marine Alkaloid Fascaplysin and Its Derivatives as Potent Anticancer Agents” (Marine Drugs, 2022)

How the values were obtained:
PC-3 cells = assay: MTT assay, PC-3 cells; assay type: cell-based, human; conditions: Homo sapiens, PC-3; prostate cancer cells; 48 h of treatment; mean ± SD
Experimental: (§1) The human prostate cancer cell lines PC-3, DU145, 22Rv1 and LNCaP, as well as human prostate non-cancer cell line PNT2 were purchased from ATCC (Manassas, VA, USA). HEK 293T (human embryonic kidney cells) and MRC-9 (human fibroblast cells) cell lines were purchased from ECACC (Salisbury, UK). […] Authentication of all cell lines used was recently performed by a commercial service (Multiplexion GmbH, Heidelberg, Germany).
(§2) Cells were cultured as monolayers at 37 °C in a humidified atmosphere with 5% (v/v) CO2 in the correspondent culture medium: 10% FBS/RPMI medium (RPMI medium supplemented with Glutamax^TM-I (gibco® Life technologies^TM, Paisley, UK) containing 10% fetal bovine serum (FBS, gibco® Life technologies^TM) and 1% penicillin/streptomycin (Invitrogen)) for PNT2, LNCaP, 22Rv1, PC-3 and DU145 and cells; 10% FBS/DMEM medium (DMEM medium supplemented with Glutamax^TM-I (gibco® Life technologies^TM) containing 10% FBS and 1% penicillin/streptomycin (gibco® Life technologies^TM)) for MRC-9 and HEK 293 cells. Cells were continuously kept in culture for a maximum of 3 months, and were regularly checked for stable phenotype and mycoplasma infection.
(§3) Effect of the drugs on cell viability in terms of metabolic activity was assessed by MTT assay, as previously reported. Cells were pre-incubated overnight in 96-well plates (6 × 10^3 cells/well in 100 μL/well) in the correspondent culture media. Then, the medium was replaced with fresh 10% FBS/RPMI medium containing the investigated compounds (100 μL/well), and cells were incubated for 48 h, unless otherwise stated. Next, 10 μL/well of (3-(4,5-dimethylthiazol-2-yl)-2,5-diphenyltetrazolium bromide) reagent (MTT, 5 mg/mL) was added. After 2–4 h of incubation, the media was aspirated and the plates were dried. Then, 50 μL/well of DMSO was added to each well and the cell viability was measured using an Infinite F200PRO reader (TECAN, Männedorf, Switzerland). Results were calculated using the GraphPad Prism software v.9.1.1 (GraphPad Software, San Diego, CA, USA) and are represented as IC50 of the compounds calculated using the cells treated with the solvent alone as a control.

22Rv1 cells [1] = assay: MTT assay, 22Rv1 cells; assay type: cell-based, human; conditions: Homo sapiens, 22Rv1; prostate cancer cells; 48 h of treatment; mean ± SD
Experimental: as §1, §2, §3

DU145 cells = assay: MTT assay, DU145 cells; assay type: cell-based, human; conditions: Homo sapiens, DU-145; prostate cancer cells; 48 h of treatment; mean ± SD
Experimental: as §1, §2, §3

LNCaP cells = assay: MTT assay, LNCaP cells; assay type: cell-based, human; conditions: Homo sapiens, LNCaP; prostate cancer cells; 48 h of treatment; mean ± SD
Experimental: as §1, §2, §3

PNT2 cells = assay: MTT assay, PNT2 cells; assay type: cell-based, human; conditions: Homo sapiens, PNT2; non-cancer cells; 48 h of treatment; mean ± SD
Experimental: as §1, §2, §3

MRC-9 cells = assay: MTT assay, MRC-9 cells; assay type: cell-based, human; conditions: Homo sapiens, MRC9; non-cancer cells; 48 h of treatment; mean ± SD
Experimental: as §1, §2, §3

HEK-293 cells = assay: MTT assay, HEK-293 cells; assay type: cell-based, human; conditions: Homo sapiens, HEK293; non-cancer cells; 48 h of treatment; mean ± SD
Experimental: as §1, §2, §3

22Rv1 cells [2] = assay: Trypan blue-based viability assay; assay type: cell-based, human; conditions: Homo sapiens, 48 h of treatment, mean ± SD, read-out: IC50, trypan blue staining assay
Experimental: The effect of the drugs on cell viability in terms of cellular membrane integrity was evaluated by the trypan blue exclusion assay as described before. In brief, cells (0.2 × 10^6 cells/well) were seeded in 6-well plates and incubated overnight, and the media was replaced with fresh media (1 mL/well) containing drugs at indicated concentrations. After treatment for 48 h, the cells were harvested by trypsinization, stained with trypan blue and the viability was measured using an automatic Beckman Coulter Vi-CELL (Beckman Coulter, Krefeld, Germany). Trypan blue-positive cells were assumed to have damaged cellular membrane (i.e., dead), whereas trypan blue-negative cells were considered to have an intact cellular membrane (i.e., alive).

22Rv1 cells [3] = assay: Cell cycle progression, flow cytometry with PI staining; assay type: cell-based, human; conditions: treated at IC50 (MTT assay) for 48 h
Experimental: (§4) The effects on cell cycle progression and DNA fragmentation were analyzed by flow cytometry using PI staining, as described before. Cells (2 × 10^5 cells/well) were pre-incubated overnight in 6-well plates and then treated with the investigated drugs in fresh culture media (2 mL/well) for 48 h. Cells were harvested by trypsinization, fixed in 70% EtOH, stained with PI solution and analyzed by FACS Calibur (BD Bioscience, San Jose, CA, USA). The results were quantified using BD Bioscience Cell Quest Pro v.5.2.1. software (BD Bioscience). The cells appearing as a sub-G1 population (containing fragmented DNA) were considered to be apoptotic.

22Rv1 cells [4] = assay: DNA fragmentation (apoptosis, sub-G1), flow cytometry with PI staining; assay type: cell-based, human; conditions: treated at IC50 (MTT assay) for 48 h, mean ± SD
Experimental: as §4

[5] = test system: double-stranded calf thymus DNA; assay: Thiazole orange displacement (DNA intercalation) assay; assay type: binding; conditions: 1 µM calf thymus DNA base pairs, 2 µM thiazole orange; 7 min at room temperature; mean ± SD
Experimental: DNA intercalation activity of the compounds was calculated as an ability to displace thiazole orange (TO) from the double-stranded DNA. For this experiment, a mixture (100 µL) containing 1 µM of double-stranded calf thymus DNA (recalculated as a concentration of base pairs) and 2 µM of thiazole orange (TO) solved in water was prepared. Then, the investigated compounds were added up to final concentrations of 0.39–25 µM; DMSO concentration in the samples was <0.02%. Propidium iodide (PI, positive control) was added up to final concentrations of 0.039–2.5 uM. After 7 min of incubation at room temperature, TO fluorescence was monitored using a multimodal plate reader TECAN Spark (Tecan Group Ltd., Männedorf Switzerland) at the excitation λ = 480 nm; fluorescence was recorded at λ = 530 nm. The bandwidth was 10 nm. The concentration of the drug that caused a decrease in TO fluorescence by 50% (EC50) was determined by approximating the experimental data using a non-linear regression algorithm and calculated using the GraphPad Prism software v.9.1.1 (GraphPad Software, San Diego, CA, USA).

[6] = test system: prostate cancer cell lines (PC-3, 22Rv1, DU145 and LNCaP); assay: MTT assay, mean over four prostate cancer cell lines; assay type: cell-based; conditions: Homo sapiens; mean of MTT IC50 in PC-3, 22Rv1, DU145 and LNCaP; from Table S1 values; read-out: mean IC50 in cancer cells
Experimental: as §3, with “Next, SAR analysis was performed to identify the structural elements that are beneficial for anticancer activity of the fascaplysin-related molecules. Considering the complex and heterogeneous nature of tumors even within the same patient, we used calculated mean IC50 values of each drug in all prostate cancer cells for further analysis (Figure 2A). To identify the drug candidates with the highest therapeutic potential, the selectivity index (SI) was calculated as mean IC50 in non-cancer cells versus mean IC50 in cancer cells (Figure 2B), or as a mean IC50 in non-cancer (MRC-9 and HEK293) cells versus mean IC50 in prostate cells (cancer PC-3, 22Rv1, DU145, LNCaP and non-cancer PNT2 cells) (Figure 2C). Finally, to estimate the effects on cellular metabolism, we compared the activity evaluated by using trypan blue assay versus MTT assay (Figure 2D). Effect” for “Effect”, “2-4” for “2–4”, “F200PRO” left out

[7] = test system: non-cancer cell lines versus cancer cell lines; assay: Selectivity index from MTT IC50s; assay type: cell-based, human; conditions: MTT; for Selectivity index, IC50 (non-prostate) / IC50 (prostate): mean IC50 MRC-9 and HEK-293 versus mean IC50 prostate cancer cell lines plus PNT2; for Selectivity index, IC50 (non-cancer) / IC50 (cancer): mean IC50 non-cancer cell lines versus mean IC50 cancer cell lines
Experimental: as §3, with “Next, SAR analysis was performed to identify the structural elements that are beneficial for anticancer activity of the fascaplysin-related molecules. Considering the complex and heterogeneous nature of tumors even within the same patient, we used calculated mean IC50 values of each drug in all prostate cancer cells for further analysis (Figure 2A). To identify the drug candidates with the highest therapeutic potential, the selectivity index (SI) was calculated as mean IC50 in non-cancer cells versus mean IC50 in cancer cells (Figure 2B), or as a mean IC50 in non-cancer (MRC-9 and HEK293) cells versus mean IC50 in prostate cells (cancer PC-3, 22Rv1, DU145, LNCaP and non-cancer PNT2 cells) (Figure 2C). Finally, to estimate the effects on cellular metabolism, we compared the activity evaluated by using trypan blue assay versus MTT assay (Figure 2D). Effect” for “Effect”, “2-4” for “2–4”, “F200PRO” left out

SMILES | IC50 (PC-3 cells) [nM] | IC50 (22Rv1 cells [1]) [nM] | IC50 (DU145 cells) [nM] | IC50 (LNCaP cells) [nM] | IC50 (PNT2 cells) [nM] | IC50 (MRC-9 cells) [nM] | IC50 (HEK-293 cells) [nM] | IC50 (22Rv1 cells [2]) [nM] | Cell cycle arrest (at IC50) (22Rv1 cells [3]) | % of sub-G1 apoptotic cells (at IC50) (22Rv1 cells [4]) [%] | EC50 [5] [nM] | IC50 [6] [nM] | Selectivity index, IC50 (non-prostate) / IC50 (prostate) [7] | Selectivity index, IC50 (non-cancer) / IC50 (cancer) [7]
O=C1c2ccc(Br)cc2-[n+]2ccc3c([nH]c4cccc(Br)c43)c21.[Cl-] [Compound 9, 12,13-dihydro-3,8-dibromo-13-oxopyrido[1,2-a:3,4-b’]diindol-5-ium chloride] | 1390 ± 700 | 209 ± 72 | 334 ± 34 | 361 ± 85 | 369 ± 24 | 2070 ± 470 | 580 ± 99 | 259 ± 94 | No | 28.7±3.49 | 690 ± 20 | 570 | 2.48 | 1.75
O=C1c2cc(Br)ccc2-[n+]2ccc3c([nH]c4c(Cl)cc(Cl)cc43)c21.[Cl-] [Compound 14, 12,13-dihydro-2-bromo-9,11-dichloro-13-oxopyrido[1,2-a:3,4-b’]diindol-5-ium chloride] | 5290 ± 132 | 4150 ± 340 | 6910 ± 650 | 6510 ± 2320 | 2750 ± 1740 | > 50000 | 2610 ± 429 | 7430 ± 850 | No | 23.6±1.2 |  | 5720 | 5.14 | 3.23
O=C1c2ccccc2-[n+]2c(-c3ccccc3)cc3c([nH]c4ccccc43)c21.[Cl-] [Compound 20, 12,13-dihydro-6-phenyl-13-oxopyrido[1,2-a:3,4-b’]diindol-5-ium chloride] | 429 ± 100 | 156 ± 32 | 444 ± 95 | 283 ± 35 | 440 ± 75 | 860 ± 111 | 412 ± 66 | 207 ± 74 | No | 16.4±2.47 |  | 330 | 1.82 | 1.74
